According to patent US20070219346A1, “Glucose sensor and uses thereof” (McGill University, priority 2002, published 2007):
Entries after “also recorded” stand apart in the source; their conditions may differ.

What was measured:
[1] = Enzymatic activity of glucokinase immobilized on solid supports or electrode surfaces; format: biochemical, human; conditions: for glucokinase activity while immobilized: on glutathione or Ni2+-containing supports
Procedure: The enzymatic activity of the wild-type GST and His-tagged glucokinases was measured while the proteins were immobilized on glutathione or Ni^2+-containing supports, respectively.
This was not a complete surprise, as the final coupling requires free amino groups of the protein. Most likely there are a significant number of such groups involved, but in the process of participating in the coupling, enzyme function is destroyed.
Each step was analyzed by bioimpedance measurements. First, nitrilotriacetic acid (NTA) ligand (FIG. 9A) was coupled to SP electrode surface using 1-ethyl-3-(3-dimethylaminopropyl)-carbodiimide (EDC) activation (FIG. 9B). Electrodes were then loaded with Ni^2+ cations. Wild-type His-GLK (1 μg) was then avidly coupled to the electrode surface, again corroborated by impedance measurements (FIG. 9C). These prepared electrodes were subsequently used as glucose biosensors.

[2] = Intrinsic fluorescence spectroscopy of His-tagged glucokinase in solution; format: binding, human; conditions: 100 mM glucose, excitation 280 nm
Procedure: FIG. 7 depicts fluorescence spectroscopy analysis of His-tagged glucokinase. The intrinsic fluorescence intensity spectrum of His-tagged wild-type glucokinase was measured following excitation at 280 nm. The baseline spectrum of His-tagged glucokinase alone is shown (His-GLK, thin dashed line).
Intrinsic fluorescence experiments with glucokinase were performed to document and verify glucose-induced conformational changes, which is an absolute requirement for impedance biosensing to be successful. Purified wild-type N-terminal His-tagged glucokinase (10 μg) with enzyme specific activity of ≅200 U/mg was used in a 10×10 mm^2 cuvette. After the addition of 100 mM glucose, intrinsic fluorescence spectroscopy was performed (excitation wavelength 280 nm; maximum fluorescence 312 nm). There is a 20-25% increase in maximal intrinsic fluorescence at 312 nm with the addition of 100 mM glucose, reflective of conformational changes in the His-tagged glucokinase (FIG. 7). This is similar to native wild-type glucokinase [Xu L Z, Zhang W, Weber I T, Harrison R W, Pilkis S J. 1994. Site-directed mutagenesis studies on the determinants of sugar specificity and cooperative behavior of human beta-cell glucokinase. J Biol Chem 269:27458-27465; and Xu L Z, Weber I T, Harrison R W, Gidh-Jain M, Pilkis S J. 1995. […]

[3] = Intrinsic fluorescence spectroscopy of His-tagged glucokinase immobilized on Ni-NTA agarose; format: binding, human; conditions: for change of maximal intrinsic fluorescence in presence of glucose, immobilized protein: 100 mM glucose, Ni-NTA agarose bound
Procedure: FIG. 8 depicts fluorescence spectroscopy analysis of His-tagged glucokinase immobilized on Ni-NTA agarose (QIAGEN). The intrinsic fluorescence intensity spectra were measured in the absence and presence of 100 mM glucose following excitation at 280 nm. The baseline spectrum of immobilized His-tagged glucokinase alone is shown (Ni-NTA-His-GLK, thin line).
Intrinsic fluorescence experiments were performed on purified immobilized wild-type N-terminal His-tagged glucokinase (FIG. 8). […] Next, immobilized His-GLK that had been previously incubated with glucose was washed with glucose-free buffer. […] When the washed Ni^2+-bound His-GLK was incubated with glucose, again an upward shift in the fluorescence intensity occurred, indicative of a recurring conformational change in the protein.

[4] = Glucokinase activity of purified tagged glucokinases, coupled glucose 6-P dehydrogenase/NADPH assay; format: biochemical, human
Procedure: Glucokinase activity was assayed as described previously [Storer, A. C., et al., Biochem. J. 141:205-209 (1974)] with the following modifications. Reactions were carried out at 25° C. in 50 nM glycylglycinate buffer, pH 7.8, containing 1 mM NADP, 100 mM KCl, 5 mM MgCl2, 1 unit of glucose 6-P dehydrogenase, 100 mM glucose, 5 mM ATP, and glucokinase in a total volume of 1 ml. All reaction mixtures were incubated at 25° C.
Production of NADPH was followed by the increase in absorbance at 340 nm using a spectrophotometer. Glucokinase activity may then be calculated using the following formula: Activity (units/ml)=(Δ OD/min)/0.15×dilution factor
A unit of activity is the amount of glucokinase which transforms, under optimal conditions, 1 μmole of substrate/min at room temperature.
The glucokinase activity of the purified glucokinases was assayed as above.

[5] = Impedance biosensing with His-GLK immobilized on Ni2+-NTA screen-printed electrodes; design: species or system human; conditions: 100 mM glucose, Ni2+-NTA screen-printed electrode
Procedure: FIG. 9 depicts A) Immobilized-metal affinity chromatography (IMAC). Adjacent histidine residues in His-tagged proteins interact with the Ni^2+-NTA matrix. B-D) Typical Nyquist diagrams obtained for different electrode surface conditions. The imaginary (Zi) and real (Zr) complex impedence elements were calculated by computer following impedence measurements. B) Modification of screen-printed electrode (SPE) with NTA ligand. Nitrilotriacetic acid (NTA) ligand was coupled to the bare SPE electrode surface using 1-ethyl-3-(3-dimethylaminopropyl)-carbodiimide (EDC) activation. C) Immobilization of glucokinase. The SPE was loaded with Ni^2+ cations (Ni2+) and His-tagged wild-type glucokinase (GLK) immobilized on the surface. D) Detection of glucose.
To establish the use of modified re-engineered glucokinase molecules as potential mediators of glucose recognition, experiments were performed using impedance biosensing technology. The initial objectives were to covalently immobilize wild-type glucokinase on two potential electrode substrates: silicon (Si; industry standard), and screen-printed graphite (SP) electrodes [Marquette, C. A. et al., Anal. Chem., 78:959-964 (2006)]. Impedance measurements were used to monitor the changes of glucokinase in the presence of glucose. […]
Each step was analyzed by bioimpedance measurements. […]

increase in maximal intrinsic fluorescence at 312 nm [2]	change of maximal intrinsic fluorescence in presence of glucose, immobilized protein ([3]; listed as Ni-NTA-His-GLK)	reversibility of glucose binding ([3]; immobilized, washed with glucose-free buffer)	Substance	glucokinase activity while immobilized [1]	glucokinase activity while immobilized ([1]; listed as His-tagged glucokinase)	change of maximum intrinsic fluorescence intensity on glucose addition ([2]; in solution)	change of maximal intrinsic fluorescence in presence of glucose, immobilized protein [3]	glucokinase enzymatic activity ([4]; purified affinity-tagged protein, 100 mM glucose, 5 mM ATP, 25° C.)	enzyme specific activity ([4]; purified wild-type N-terminal His-tagged glucokinase)	impedance change in the presence of glucose [5]	impedance change in the presence of glucose ([5]; listed as His-tagged GLK)	enzyme activity after covalent coupling to electrode surface ([1]; nitrobenzenediazoniun/glutaraldehyde coupling)
20-25%	maximum fluorescence intensity increased	reversible	His-GLK: wild-type human liver glucokinase with N-terminal polyhistidine tag, expressed from pET-15b in E. coli	retained glucokinase activity	retained full enzymatic activity	increase in the maximum fluorescence intensity	increase in the maximal intrinsic fluorescence	expected enzymatic activity; also recorded: significant glucokinase enzymatic activity	~200 U/mg	significant impedance changes	significant shift to the left in the curve	–
–	–	–	glucokinase: human wild-type glucokinase, hexokinase family enzyme binding D-glucose	–	–	–	–	–	–	–	–	total loss of enzyme activity
